Values quoted from earlier work in patent publication US7452871B2, “Compositions and methods for treating mammals with modified alginates and modified pectins” (EcoNugenics, Inc., priority 1999, dated 2008).

Assays:
[1] = rats
[2] = rats; remark: listed apart in the source
cancer metastasis = conditions: modified citrus pectin: oral administration

AG-10
blood glucose levels after glucose administration [1]: inhibited blood glucose levels from rising
cholesterol excretion [2]: enhanced cholesterol secretion

AG-270
blood glucose levels after glucose administration [1]: inhibited blood glucose levels from rising
cholesterol excretion [2]: enhanced cholesterol secretion

modified citrus pectin
suppressing or preventing metastases (cancer metastasis): may be effective in suppressing or preventing metastases
